Earlier results, collected in patent US11083704B2, “Method of administering nitroxyl donating compounds” (Cardioxyl Pharmaceuticals, Inc., priority 2017, dated 2021).

Columns and labels:
[1] = healthy patients and patients hospitalized with advanced heart failure
[2] = preclinical models and Phase I/IIa studies

In the case of `Cc1ccc(S(=O)(=O)NO)o1` [N-hydroxy-5-methylfuran-2-sulfonamide], the “safety and tolerability of infusions” value [1] is listed as “safe and well-tolerated”, the inotropy [2] is listed as “increased inotropy” and the lusitropy [2] is listed as “improved lusitropy”. The vasodilation [2] was “peripheral vasodilation”.
